Where a SMILES comes first, the peptide text is derived from it.
Columns and labels:
[1] = biological target: T1, recombinant human clusterin (Homo sapiens, UniProt P10909); experiment: BIAcore surface plasmon resonance binding of CGEN-CL1 to clusterin; conditions: SPR, 312-5000 nM CGEN-CL1, immobilized clusterin
T1 construct: purchased Biovendor RD172034100
Source text: The capability of CGEN-CL1 to specifically bind to recombinant Clusterin protein was investigated using the BIACORE technology, measuring protein-protein interaction and binding affinity. The technology is based on surface plasmon resonance (SPR), an optical phenomenon that enables detection of unlabeled interactants in real time. The SPR-based biosensors can be used in determination of active concentration, screening and characterization in terms of both affinity and kinetics.
Peptide-protein interaction was analyzed using surface plasmon resonance. Analysis of the interaction between CGEN-CL1 [SEQ ID NO:1] and recombinant human clusterin (Biovendor, Modrice, Czech republic cat no: RD172034100) was conducted using the BIAcore biosensor (Pharmacia Biosensor, Uppsala, Sweden). Clusterin was immobilized directly to a CM5 sensor chip (2000 resonance units (RU)). Solution containing five different concentrations of CGEN-CL1 [SEQ ID NO:1] (312, 625, 1250, 2500 and 5000 nM) was injected into the sample chamber of the BIACORE device and the interaction was monitored for 5 minutes using surface plasmon resonance.
As a background, the solutions were also injected onto an empty flow cell with no immobilized ligand and the binding levels achieved were subtracted. Data were analyzed using BIAevaluation software.

[2] = test system: A549 human non-small cell lung cancer cells
Method: A549 cells were seeded at 6000 cells per well in 150 μl of media (DMEM medium+5% FBS) in a 96 well plate.
CGEN-CL1 (1 mg dissolved in 2500 of Sodium bi-carbonate to a stock concentration of 4 mg/ml) was added to the wells in 500 of medium (final volume of 2000) as detailed in Table 2. The relative growth was normalized to controls where CGEN-CL1 was not added to wells.
(§2) 20 μl of MTT (3-(4,5-Dimethyl-2-thiazolyl)-2,5-diphenyl-2H-tetrazolium bromide) solution (Sigma Cat#M5655, lot#085k5322, 1 gr was dissolved in 200 ml H2O and filtered, giving a final concentration of 5 mg/ml) was added to each well and incubated for 4 hours at 37° C. after which the medium was vacuumed and 100 μl of DMSO was added to each well. Absorbance was measured in an ELISA reader at 492 nm.

[3] = test system: cleaved PARP in PC3 cells; experiment: Detection of cleaved PARP by Western blot in PC3 cells; type: cell-based
Method: (§1) Apoptosis was analyzed either by cell cycle analysis or by PARP cleavage estimation. The amount of cleaved PARP is proportional to the amount of cells undergoing apoptosis (see for example Boulares A. H., et al., 1999, JBC 274:22932-22940).
FIG. 3 presents results of detection of cleaved PARP in PC3 cells treated with CGEN-CL1 combined with or without Paclitaxel. PC3 cells were treated with CGEN-CL1 (SEQ ID NO:1), alone or in combination with Paclitaxel, for 48, 72 and 96 hours. Cleaved PARP was detected in cell lysates by Western blot analysis. […] Elevation of the amount of cleaved PARP indicates an increase in apoptotic cells.

[4] = test system: PC3 cells; experiment: Cell cycle analysis by propidium iodide staining (FACS) in PC3 cells; type: cell-based; conditions: 300 nM or 1 μM CGEN-CL1, PI staining
Method: as §1
Cell Cycle Analysis was carried out by Propidium Iodide (PI) Staining. The cells were trypsinized and suspended in DMEM medium+10% FCS. Following centrifugation (1000 rpm, 5 min) the cell pellet was suspended in PBS (1 ml). Fixation with EtOH was performed as follows: cell suspension was transferred into 2.5 ml absolute EtOH (final concentration approx. 70%) by pipetting or by vortexing the suspension at half speed while adding the EtOH) to prevent clustering of cells during the fixation. EtOH fixated cells were incubated on ice for 15 min (or overnight at −20° C.).
Propidium Iodide (PI) staining of the cells was carried out as follows: the cells were pelleted at 1500 rpm for 5 min and then suspended in 500 μl PI-solution (in PBS: 50 μg/ml PI from 50× stock solution (2.5 mg/ml); 0.1 mg/ml RNase A; 0.05% Triton X-100), following incubation for 40 min at 37° C. Then 3 ml of PBS were added, and the cells were pelleted at 1500 rpm, 5 min. The cell pellet was suspended in 500 μl PBS for flow analysis. The flow analysis was carried out using the following approximate settings (on FACSort): FL1: 570 V log; FL2: 470 V linear.

[5] = test system: breast cancer cell line MCF-7
Method: MCF7 cells were seeded at 10,000 cells per well in 150 μl of media (DMEM medium+5% FBS) in a 96 well plate.
The relative growth was normalized to controls where CGEN-CL1 was not added to wells.
as §2

T1 sequence (P10909 23-449): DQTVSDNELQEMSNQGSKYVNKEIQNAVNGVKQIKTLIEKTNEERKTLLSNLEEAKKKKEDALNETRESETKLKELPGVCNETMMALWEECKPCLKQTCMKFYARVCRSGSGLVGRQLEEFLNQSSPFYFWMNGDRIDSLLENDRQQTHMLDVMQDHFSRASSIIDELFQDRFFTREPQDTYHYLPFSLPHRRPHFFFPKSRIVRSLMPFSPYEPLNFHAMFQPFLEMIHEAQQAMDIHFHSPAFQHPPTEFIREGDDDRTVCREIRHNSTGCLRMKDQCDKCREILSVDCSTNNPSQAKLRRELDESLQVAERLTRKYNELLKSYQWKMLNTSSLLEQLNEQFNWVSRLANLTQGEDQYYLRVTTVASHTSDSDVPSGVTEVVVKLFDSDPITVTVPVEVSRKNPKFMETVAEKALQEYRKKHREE

EC50 [2]: 0.95 nM
EC50 [5]: 56 nM
Compound: CC[C@H](C)[C@H](NC(=O)[C@H](CCCNC(=N)N)NC(=O)[C@H](CC(=O)O)NC(=O)CNC(=O)[C@H](CC(N)=O)NC(=O)[C@H](CCSC)NC(=O)[C@H](Cc1c[nH]c2ccccc12)NC(=O)[C@H](Cc1ccccc1)NC(=O)[C@H](Cc1ccc(O)cc1)NC(=O)[C@H](Cc1ccccc1)NC(C)=O)C(=O)N[C@@H](CC(=O)O)C(=O)N[C@@H](CO)C(=O)N[C@@H](CC(C)C)C(=O)N[C@@H](CC(C)C)C(=O)N[C@@H](CCC(=O)O)C(=O)N[C@@H](CC(N)=O)C(=O)N[C@@H](CC(=O)O)C(=O)N[C@@H](CCCNC(=N)N)C(=O)N[C@@H](CCC(N)=O)C(=O)N[C@@H](CCC(N)=O)C(=O)N[C@H](C(N)=O)[C@@H](C)O [CGEN-CL1] (Ac-FYFWMNGDRIDSLLENDRQQT-NH2)
binding to parent protein clusterin [1]: binds to its parent protein clusterin in a dose dependent manner
amount of cleaved PARP ([3]; PC3 cells treated with Paclitaxel plus CGEN-CL1, 48 hours): dramatically enhanced the amount of cleaved PARP
amount of cleaved PARP ([3]; PC3 cells, CGEN-CL1 alone, 48 hours): caused an enhancement in the amount of cleaved PARP
amount of cleaved PARP ([3]; PC3 cells, CGEN-CL1 alone, 72 hours, administration at time zero and after 48 hours): significant increase in cleaved PARP
percentage of apoptotic cells [4]: increased the percentage of apoptotic cells
percentage of cells in cell cycle phases [4]: increased the percentage of cells in cell cycle phases G0/G1 and G2/M
concentration achieving maximal growth inhibition ([5]; MCF-7 breast cancer cells, MTT): approximately 900 nM
concentration with a growth inhibiting effect (as little as) ([5]; MCF-7 breast cancer cells, MTT): 50 nM

Reference: patent US8575107B2, “Clusterin derived peptide” (Compugen Ltd., priority 2008, dated 2013)
